Consider 16 compounds from patent US9073855B2, “BCL-2 selective apoptosis-inducing agents for the treatment of cancer and immune diseases” (AbbVie Inc., priority 2008, dated 2015).

In one experiment the test system is FL5.12/Bcl-2 cells. The experiment can be described thus: FL5.12/Bcl-2 cell viability assay under IL-3 withdrawal (CellTitre Glo). Type of experiment: cell-based, murine. The following applies: Mus musculus, IL-3 withdrawn 48 hrs, then 24 hrs with compound. In outline:
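Viability measured with CellTiter-Glo after 24 h compound treatment at various concentrations, following 48 h IL-3 withdrawal (no WEHI-3B medium). Cells: prolymphocytic mouse FL5.12 line stably transfected to overexpress Bcl-2, cultured at 37 °C, 5% CO2.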

In another experiment the target is GST-Bcl-XL (Homo sapiens, UniProt Q07817). The experiment can be described thus: TR-FRET binding assay, GST-Bcl-XL with F-Bak peptide probe. To be noted: TR-FRET Binding Affinity, GST-Bcl-XL, F-Bak peptide probe. In outline:
(§1)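 Ki was derived with Wang's equation for competitive binding of two ligands. The read-out was time-resolved fluorescence after a 3 h room-temperature incubation, using a Tb-labelled antibody donor and the F-Bak peptide acceptor (excitation 340/35 nm). Test compounds entered as DMSO serial dilutions starting at 50 μM, which was the 2× concentration.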
A general note: Time-resolved FRET reads energy transfer from a long-lived donor to a nearby acceptor.

The target of the next experiment is GST-Bcl-2 (Homo sapiens, UniProt P10415). The experiment can be described thus: TR-FRET binding assay, GST-Bcl-2 with F-Bak peptide probe. The following applies: TR-FRET Binding Affinity, GST-Bcl-2, F-Bak peptide probe. In outline: as §1
Chain of GST-Bcl-2 (P10415 whole entry): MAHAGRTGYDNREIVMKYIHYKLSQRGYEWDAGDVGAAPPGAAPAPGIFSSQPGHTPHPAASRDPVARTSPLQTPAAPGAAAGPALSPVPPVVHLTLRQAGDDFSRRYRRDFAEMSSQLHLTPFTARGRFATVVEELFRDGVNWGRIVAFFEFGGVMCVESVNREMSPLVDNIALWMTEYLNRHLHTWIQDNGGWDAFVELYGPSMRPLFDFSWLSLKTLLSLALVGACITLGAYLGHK

Chain of GST-Bcl-XL (Q07817 whole entry): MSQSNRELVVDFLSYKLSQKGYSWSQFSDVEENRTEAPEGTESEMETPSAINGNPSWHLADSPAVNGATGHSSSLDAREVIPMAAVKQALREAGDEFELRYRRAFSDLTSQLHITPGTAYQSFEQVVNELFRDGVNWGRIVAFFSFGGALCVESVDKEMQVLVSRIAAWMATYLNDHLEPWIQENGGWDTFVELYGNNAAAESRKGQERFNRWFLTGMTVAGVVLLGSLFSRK

What is called EC50 is the concentration needed to bring the measured effect to its halfway point. Broadly, the Ki is a dissociation constant, usually derived from enzyme kinetics or from competition with a known ligand. A low value points to higher affinity. For `CC1(C)CCC(CN2CCN(c3ccc(C(=O)NS(=O)(=O)c4ccc(NC5CCN(CCCC(F)(F)F)CC5)c([N+](=O)[O-])c4)c(Oc4cccc5[nH]ccc45)c3)CC2)=C(c2ccc(Cl)cc2)C1` [Example 210, 4-(4-{[2-(4-chlorophenyl)-4,4-dimethylcyclohex-1-en-1-yl]methyl}piperazin-1-yl)-2-(1H-indol-4-yloxy)-N-[(3-nitro-4-{[1-(4,4,4-trifluorobutyl)piperidin-4-yl]amino}phenyl)sulfonyl]benzamide], in the experiment on FL5.12/Bcl-2 cells, the EC50 was 257 nM. For the same compound, the Ki at GST-Bcl-XL was > 660 nM; at GST-Bcl-2 it was 0.624 nM.
On the same counts, the results for `CN1CCC(O)(CCNc2ccc(S(=O)(=O)NC(=O)c3ccc(N4CCN(CC5=C(c6ccc(Cl)cc6)CC(C)(C)CC5)CC4)cc3Oc3ccc4[nH]ccc4c3)cc2[N+](=O)[O-])CC1` [Example 211, 4-(4-{[2-(4-chlorophenyl)-4,4-dimethylcyclohex-1-en-1-yl]methyl}piperazin-1-yl)-N-[(4-{[2-(4-hydroxy-1-methylpiperidin-4-yl)ethyl]amino}-3-nitrophenyl)sulfonyl]-2-(1H-indol-5-yloxy)benzamide] are 17.1 nM, 5.61 nM and 0.009 nM.
On the same counts, the results for `CC1(C)CCC(CN2CCN(c3ccc(C(=O)NS(=O)(=O)c4ccc(NC5CCN(c6nccs6)CC5)c([N+](=O)[O-])c4)c(Oc4ccc5[nH]ccc5c4)c3)CC2)=C(c2ccc(Cl)cc2)C1` [Example 212, 4-(4-{[2-(4-chlorophenyl)-4,4-dimethylcyclohex-1-en-1-yl]methyl}piperazin-1-yl)-2-(1H-indol-5-yloxy)-N-[(3-nitro-4-{[1-(1,3-thiazol-2-yl)piperidin-4-yl]amino}phenyl)sulfonyl]benzamide] are > 500 nM, > 660 nM and 0.737 nM.
The like results for `O=C(NS(=O)(=O)c1ccc(NCC2CCOCC2)c([N+](=O)[O-])c1)c1ccc(N2CCN(Cc3cc(OCCO)ccc3-c3ccc(Cl)cc3)CC2)cc1Oc1cccc2[nH]ccc12` [Example 213, 4-(4-{[4′-chloro-4-(2-hydroxyethoxy)-1,1′-biphenyl-2-yl]methyl}piperazin-1-yl)-2-(1H-indol-4-yloxy)-N-({3-nitro-4-[(tetrahydro-2H-pyran-4-ylmethyl)amino]phenyl}sulfonyl)benzamide] were, in that order, 432 nM, > 660 nM and < 0.01 nM.
With `CC1(C)CCC(CN2CCN(c3ccc(C(=O)NS(=O)(=O)c4ccc(NC5CCN(CC6CC6)CC5)c([N+](=O)[O-])c4)c(Oc4ccc5[nH]ccc5c4)c3)CC2)=C(c2ccc(Cl)cc2)C1` [Example 214, 4-(4-{[2-(4-chlorophenyl)-4,4-dimethylcyclohex-1-en-1-yl]methyl}piperazin-1-yl)-N-[(4-{[1-(cyclopropylmethyl)piperidin-4-yl]amino}-3-nitrophenyl)sulfonyl]-2-(1H-indol-5-yloxy)benzamide], in the experiment with FL5.12/Bcl-2 cells, the EC50 is 15.7 nM. Besides, the Ki at GST-Bcl-XL came to 64 nM; on GST-Bcl-2 it was 0.082 nM.
The like results for `CN1CCN(Nc2ccc(S(=O)(=O)NC(=O)c3ccc(N4CCN(CC5=C(c6ccc(Cl)cc6)CC(C)(C)CC5)CC4)cc3Oc3cccc4[nH]ccc34)cc2S(=O)(=O)C(F)(F)F)CC1` [Example 215, 4-(4-{[2-(4-chlorophenyl)-4,4-dimethylcyclohex-1-en-1-yl]methyl}piperazin-1-yl)-2-(1H-indol-4-yloxy)-N-({4-[(4-methylpiperazin-1-yl)amino]-3-[(trifluoromethyl)sulfonyl]phenyl}sulfonyl)benzamide] were, in that order, 116 nM, 60.8 nM and 0.503 nM.
On to `CC1(C)CCC(CN2CCN(c3ccc(C(=O)NS(=O)(=O)c4ccc(NC5CCN(CCCC(F)(F)F)CC5)c([N+](=O)[O-])c4)c(Oc4ccc5[nH]ccc5c4)c3)CC2)=C(c2ccc(Cl)cc2)C1` [Example 216, 4-(4-{[2-(4-chlorophenyl)-4,4-dimethylcyclohex-1-en-1-yl]methyl}piperazin-1-yl)-2-(1H-indol-5-yloxy)-N-[(3-nitro-4-{[1-(4,4,4-trifluorobutyl)piperidin-4-yl]amino}phenyl)sulfonyl]benzamide], for which the EC50 in the experiment with FL5.12/Bcl-2 cells stood at 39.8 nM. Also, the Ki was > 660 nM at GST-Bcl-XL and 0.615 nM at GST-Bcl-2.
With `CC(c1ccccc1-c1ccc(Cl)cc1)N1CCN(c2ccc(C(=O)NS(=O)(=O)c3ccc(NN4CCN(C)CC4)c([N+](=O)[O-])c3)c(Oc3cccc4[nH]ccc34)c2)CC1` (stereo not drawn) [Example 217, 4-{4-[1-(4′-chloro-1,1′-biphenyl-2-yl)ethyl]piperazin-1-yl}-2-(1H-indol-4-yloxy)-N-({4-[(4-methylpiperazin-1-yl)amino]-3-nitrophenyl}sulfonyl)benzamide], the EC50 with FL5.12/Bcl-2 cells stood at 20.8 nM. Also, the Ki is 44.8 nM on GST-Bcl-XL and 0.262 nM at GST-Bcl-2.
Take `CN1CCC(Nc2ccc(S(=O)(=O)NC(=O)c3ccc(N4CCN(CC5=C(c6ccc(Cl)cc6)CC(C)(C)CC5)C(CO)C4)cc3Oc3ccc4[nH]ccc4c3)cc2[N+](=O)[O-])CC1` (stereo not drawn) [Example 218, 4-[4-{[2-(4-chlorophenyl)-4,4-dimethylcyclohex-1-en-1-yl]methyl}-3-(hydroxymethyl)piperazin-1-yl]-2-(1H-indol-5-yloxy)-N-({4-[(1-methylpiperidin-4-yl)amino]-3-nitrophenyl}sulfonyl)benzamide]: in the experiment with FL5.12/Bcl-2 cells, the EC50 was 33 nM. For the same compound, the Ki on GST-Bcl-XL came to 96.9 nM; at GST-Bcl-2, 0.131 nM.
Consider `CC1(C)CCC(CN2CCN(c3ccc(C(=O)NS(=O)(=O)c4ccc(NC5CCN(C6CCOCC6)CC5)c([N+](=O)[O-])c4)c(Oc4ccc5[nH]ccc5c4)c3)CC2CO)=C(c2ccc(Cl)cc2)C1` (stereo not drawn) [Example 219, 4-[4-{[2-(4-chlorophenyl)-4,4-dimethylcyclohex-1-en-1-yl]methyl}-3-(hydroxymethyl)piperazin-1-yl]-2-(1H-indol-5-yloxy)-N-({3-nitro-4-[(1-tetrahydro-2H-pyran-4-ylpiperidin-4-yl)amino]phenyl}sulfonyl)benzamide], for which the EC50 in the experiment on FL5.12/Bcl-2 cells turned out to be 23 nM. The Ki at GST-Bcl-XL was determined as 29.9 nM; at GST-Bcl-2, 0.236 nM.
The like results for `CN1CCN(Nc2ccc(S(=O)(=O)NC(=O)c3ccc(N4CCN(CC5=C(c6ccc(Cl)cc6)CC(C)(C)CC5)CC4)cc3Oc3ccc4[nH]ccc4c3)cc2S(=O)(=O)C(F)(F)F)CC1` [Example 220, 4-(4-{[2-(4-chlorophenyl)-4,4-dimethylcyclohex-1-en-1-yl]methyl}piperazin-1-yl)-2-(1H-indol-5-yloxy)-N-({4-[(4-methylpiperazin-1-yl)amino]-3-[(trifluoromethyl)sulfonyl]phenyl}sulfonyl)benzamide] were, in that order, 24 nM, 31.4 nM and 0.192 nM.
The like results for `CN1CCC(Nc2ccc(S(=O)(=O)NC(=O)c3ccc(N4CCN(Cc5cc(OCCO)ccc5-c5ccc(Cl)cc5)CC4)cc3Oc3cccc4[nH]ccc34)cc2[N+](=O)[O-])CC1` [Example 221, 4-(4-{[4′-chloro-4-(2-hydroxyethoxy)-1,1′-biphenyl-2-yl]methyl}piperazin-1-yl)-2-(1H-indol-4-yloxy)-N-({4-[(1-methylpiperidin-4-yl)amino]-3-nitrophenyl}sulfonyl)benzamide] were, in that order, 149 nM, 170 nM and 0.057 nM.
The like results for `CC1(C)CCC(CN2CCN(c3ccc(C(=O)NS(=O)(=O)c4ccc(NCCCN5CCNC(=O)C5)c([N+](=O)[O-])c4)c(Oc4ccc5[nH]ccc5c4)c3)CC2)=C(c2ccc(Cl)cc2)C1` [Example 222, 4-(4-{[2-(4-chlorophenyl)-4,4-dimethylcyclohex-1-en-1-yl]methyl}piperazin-1-yl)-2-(1H-indol-5-yloxy)-N-[(3-nitro-4-{[3-(3-oxopiperazin-1-yl)propyl]amino}phenyl)sulfonyl]benzamide] were, in that order, 23.7 nM, 137 nM and 0.107 nM.
On to `CC1(C)CCC(CN2CCN(c3ccc(C(=O)NS(=O)(=O)c4ccc(NCCCN5CCNC(=O)C5)c([N+](=O)[O-])c4)c(Oc4cccc5[nH]ccc45)c3)CC2)=C(c2ccc(Cl)cc2)C1` [Example 223, 4-(4-{[2-(4-chlorophenyl)-4,4-dimethylcyclohex-1-en-1-yl]methyl}piperazin-1-yl)-2-(1H-indol-4-yloxy)-N-[(3-nitro-4-{[3-(3-oxopiperazin-1-yl)propyl]amino}phenyl)sulfonyl]benzamide], for which the EC50 with FL5.12/Bcl-2 cells is 37.1 nM. Moreover, the Ki amounted to 97.3 nM at GST-Bcl-XL and 0.169 nM on GST-Bcl-2.
Take `CN1CCC(Nc2ccc(S(=O)(=O)NC(=O)c3ccc(N4CCN(CC5=C(c6ccc(Cl)cc6)CCC(O)C5)CC4)cc3Oc3ccc4[nH]ccc4c3)cc2[N+](=O)[O-])CC1` (stereo not drawn) [Example 224, 4-(4-{[2-(4-chlorophenyl)-5-hydroxycyclohex-1-en-1-yl]methyl}piperazin-1-yl)-2-(1H-indol-5-yloxy)-N-({4-[(1-methylpiperidin-4-yl)amino]-3-nitrophenyl}sulfonyl)benzamide]: the EC50 in the experiment on FL5.12/Bcl-2 cells turned out to be 21.2 nM. Besides, the results for the Ki at GST-Bcl-XL and on GST-Bcl-2 were 0.999 nM and < 0.01 nM, respectively.
Take `O=C(NS(=O)(=O)c1ccc(NC2CCN(C3CCOCC3)CC2)c([N+](=O)[O-])c1)c1ccc(N2CCN(CC3=C(c4ccc(Cl)cc4)CCC(O)C3)CC2)cc1Oc1ccc2[nH]ccc2c1` (stereo not drawn) [Example 225, 4-(4-{[2-(4-chlorophenyl)-5-hydroxycyclohex-1-en-1-yl]methyl}piperazin-1-yl)-2-(1H-indol-5-yloxy)-N-({3-nitro-4-[(1-tetrahydro-2H-pyran-4-ylpiperidin-4-yl)amino]phenyl}sulfonyl)benzamide]: the EC50 with FL5.12/Bcl-2 cells was 29.9 nM. The Ki on GST-Bcl-XL was found to be 3.48 nM; at GST-Bcl-2, 0.01 nM.
